Data reported in patent publication US7511041B2, “Fused azole-pyrimidine derivatives” (Bayer Pharmaceuticals Corporation, priority 2002, dated 2009).
Where a name gives a salt, the structure may show the parent alone. Read-outs that look alike come from different tables or passages of the source.

Assays:
[1] = molecular target: T1, Recombinant human PI3Kγ (full length human PI3K p110γ) (Homo sapiens, UniProt P48736); assay: Kinase assay of PI3Kγ (solid-phase lipid kinase assay); format: biochemical
T1 construct: full length human PI3K p110γ fused with a His6-tag at the C-terminus; His6 (C); purchased ALEXIS BIOCHEMICALS #201-055-C010; host or cells: S. frugiperda 9 insect cells
T1 sequence (P48736 whole entry, the tested form may be a part): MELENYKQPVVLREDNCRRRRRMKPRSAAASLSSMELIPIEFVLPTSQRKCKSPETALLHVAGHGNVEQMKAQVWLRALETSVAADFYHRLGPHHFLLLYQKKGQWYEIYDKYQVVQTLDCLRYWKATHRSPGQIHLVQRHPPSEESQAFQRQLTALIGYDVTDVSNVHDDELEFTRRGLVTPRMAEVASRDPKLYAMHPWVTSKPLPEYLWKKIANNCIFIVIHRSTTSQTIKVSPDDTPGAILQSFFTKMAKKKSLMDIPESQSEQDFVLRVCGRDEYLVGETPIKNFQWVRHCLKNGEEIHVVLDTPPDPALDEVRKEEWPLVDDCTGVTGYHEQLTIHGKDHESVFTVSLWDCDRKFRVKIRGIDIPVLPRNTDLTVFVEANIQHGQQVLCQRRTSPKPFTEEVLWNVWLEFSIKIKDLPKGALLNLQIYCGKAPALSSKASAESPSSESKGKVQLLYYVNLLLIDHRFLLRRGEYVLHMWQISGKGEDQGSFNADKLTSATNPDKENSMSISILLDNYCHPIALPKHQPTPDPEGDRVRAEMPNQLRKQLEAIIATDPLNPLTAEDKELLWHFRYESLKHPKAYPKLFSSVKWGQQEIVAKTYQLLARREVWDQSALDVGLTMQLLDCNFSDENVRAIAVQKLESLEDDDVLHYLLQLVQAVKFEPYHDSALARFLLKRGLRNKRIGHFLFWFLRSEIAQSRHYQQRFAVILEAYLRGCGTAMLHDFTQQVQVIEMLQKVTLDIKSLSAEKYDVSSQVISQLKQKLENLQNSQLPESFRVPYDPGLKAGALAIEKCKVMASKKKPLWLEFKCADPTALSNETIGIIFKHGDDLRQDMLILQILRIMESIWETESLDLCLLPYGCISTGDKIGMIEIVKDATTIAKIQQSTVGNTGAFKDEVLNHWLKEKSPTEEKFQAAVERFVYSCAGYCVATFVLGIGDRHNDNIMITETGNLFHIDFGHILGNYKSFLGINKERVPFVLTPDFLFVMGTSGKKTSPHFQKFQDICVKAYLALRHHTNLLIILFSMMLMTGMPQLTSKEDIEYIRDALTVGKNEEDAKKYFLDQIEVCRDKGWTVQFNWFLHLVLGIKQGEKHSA
Source text: [Determination of IC50 Values of Compounds in Kinase Assay of PI3Kγ]
Chemicals and Assay Materials
LABORATORIES (Toronto, Canada). Recombinant human PI3Kγ (full length human PI3K p110γ fused with a His6-tag at the C-terminus expressed in S. frugiperda 9 insect cells) was obtained from ALEXIS BIOCHEMICALS (#201-055-C010; San Diego, Calif.). […] BIOTECH (Buckinghamshire, UK) and ROCHE DIAGNOSTICS (Mannheim, Germany), respectively. Scintillation cocktails and MicroScint PS™ were purchased from PACKARD (Meriden, Conn.). Maxisorp™ plates were purchased from NALGE NUNC INTERNATIONAL K.K. (Tokyo, Japan). All other chemicals not further specified were from WAKO PURE CHEMICALS (Osaka, Japan).
Solid-Phase Lipid Kinase Assay
The plates were subsequently air-dried by incubation for at least 2 hours in a fume hood. The reaction was set up by mixing 25 μl/well of assay buffer 2× (100 mM MOPSO/NaOH, 0.2 M NaCl, pH 7.0, 8 mM MgCl2, 2 mg/ml BSA (fatty acid-free)) and 50 ng/well PI3Kγ in the lipid pre-coated plate and 10× test compounds were added in 2% DMSO. The reaction was started by adding 20 μl/well of ATP mix (final 10 μM ATP; 0.05 μCi/well [γ^33P]ATP). After incubation at RT for 2 hours, the reaction was terminated by adding 50 μl/well stop solution (50 mM EDTA, pH 8.0). The plate was then washed twice with Tris-buffered saline (TBS, pH 7.4). MicroScint PS™ (PACKARD) scintillation mix was added at 100 μl/well, and radioactivity was counted by using a TopCount™ (PACKARD) scintillation counter.
The inhibition percent at each concentration of compound was calculated, and IC50 values were determined from the inhibition of curve.

[2] = Table 1, isozyme not given, read-out: in vitro
[3] = in vitro PI3K-γ inhibitory activity, class symbols A-D, read-out: in vitro PI3K-gamma
[4] = in vitro PI3K-γ inhibitory activity, class symbols, read-out: in vitro PI3K-gamma

SMILES | melting point | other results
Cc1ccc2c(c1OCCN1CCOCC1)N=C(/C=C(\O)c1cccnc1)N1CCN=C21 [Example 1-39] | 217 °C | IC50 [1, 2]: 100 to 500 nM
O/C(=C\C1=Nc2ccccc2C2=NCCN12)c1ccoc1 [Example 1-145] | 155 to 156 °C | IC50 [1, 2]: 100 to 500 nM
NS(=O)(=O)c1ccc(C(=O)NC2=Nc3ccccc3C3=NCCN23)cc1 [Example 2-247] | 278 °C (dec.) | IC50 [1, 3]: 500 to 2000 nM
Cl.O=C(NC1=Nc2cc(OCCn3cccc3)ccc2C2=NCCN12)c1cccnc1 [Example 2-196] | 239 °C | IC50 [1, 4]: 100 to 500 nM
COc1cc2c(c(OC)c1C)N=C(NC(=O)c1cccnc1)N1CCN=C21.Cl [Example 2-76] | 235 °C (dec.) | IC50 [1, 4]: 100 to 500 nM
COc1cc2c(c(OC)c1C)N=C(NC(=O)c1ccc(NC(C)=O)nc1)N1CCN=C21.Cl [Example 2-80] | 305 °C (dec.) | IC50 [1, 4]: < 100 nM
Cc1nc(N)ccc1C(=O)NC1=Nc2ccccc2C2=NCCN12 [Example 2-157] | 146 to 148 °C | IC50 [1, 4]: 100 to 500 nM
O=C(NC1=Nc2ccc(Cl)cc2C2=NCCN12)c1cccnc1 [Example 2-84] | 210 °C | IC50 [1, 4]: 100 to 500 nM
CNC(=O)COc1ccc2c(c1OC)N=C(/C=C(\O)c1cccnc1)N1CCN=C21.Cl [Example 1-25] | 240 °C (dec.) | IC50 [1, 2]: < 100 nM
Cc1ccc2c(c1)N=C(NC(=O)c1cccs1)N1CCN=C21 [Example 2-31] | 182 °C | IC50 [1, 4]: 100 to 500 nM
COc1cc2c(cc1OC)C1=NCCN1C(NC(=O)c1ccc(N)nc1)=N2.Cl [Example 2-56] | 256 °C | IC50 [1, 4]: 100 to 500 nM
Cl.O=C(NC1=Nc2c(Cl)cccc2C2=NCCN12)c1cccnc1 [Example 2-103] | > 280 °C | IC50 [1, 4]: 100 to 500 nM
CC(=O)Nc1ccc(/C(O)=C/C2=Nc3c(ccc(C)c3OCCN3CCOCC3)C3=NCCN23)cn1.Cl [Example 1-41] | 271 °C | IC50 [1, 2]: < 100 nM
CC(=O)Nc1ccc(/C(O)=C/C2=Nc3nc(C)ccc3C3=NCCN23)cn1 [Example 1-161] | > 300 °C | IC50 [1, 2]: 100 to 500 nM
O/C(=C\C1=Nc2c(Cl)cccc2C2=NCCN12)c1cccnc1 [Example 1-72] | 210 °C (dec.) | IC50 [1, 2]: 100 to 500 nM
COc1c(OCC(N)=O)ccc2c1N=C(/C=C(\O)c1cccnc1)N1CCN=C21 [Example 1-23] | 297 to 298 °C | IC50 [1, 2]: < 100 nM
COc1ccc(CC(=O)NC2=Nc3ccccc3C3=NCCN23)cc1 [Example 2-323] | 167 to 168 °C | IC50 [1, 3]: > 2000 nM
CC(=O)Nc1ccc(/C(O)=C/C2=Nc3ccccc3C3=NCCN23)cn1.Cl [Example 1-138] | 327 °C | IC50 [1, 2]: < 100 nM
CCC(=O)NC1=Nc2ccccc2C2=NCCN12 [Example 2-327] |  | IC50 [1, 3]: > 2000 nM
CCNc1ccc(/C(O)=C/C2=Nc3cc(OC)c(OC)cc3C3=NCCN23)cn1 [Example 1-53] |  | IC50 [1, 2]: 100 to 500 nM
O/C(=C\C1=Nc2cc(C(F)(F)F)ccc2C2=NCCN12)c1cccnc1 [Example 1-188] |  | IC50 [1, 2]: 500 to 2000 nM
CC(C)(C)OC(=O)N1CCCCC1C(=O)NC1=Nc2ccccc2C2=NCCN12 (stereo not shown) [Example 2-336] |  | IC50 [1, 3]: > 2000 nM
CC(C)(C)OC(=O)N1CCC(C(=O)NC2=Nc3ccccc3C3=NCCN23)CC1 [Example 2-340] |  | IC50 [1, 3]: > 2000 nM
COc1ccc2c(c1)N=C(NC(=O)c1cccnc1)N1CCN=C21.Cl [Example 2-21] | 292 °C (dec.) | 
O=C(NC1=Nc2ccccc2C2=NCCN12)c1cccnc1 (as salt: hydrochloride) [Example 2-2, N-(2,3-Dihydroimidazo[1,2-c]quinazolin-5-yl)nicotinamide hydrochloride] | 289 °C (dec.) | 
COc1cc2c(c(OC)c1C)N=C(NC(=O)c1cccnc1C)N1CCN=C21.Cl [Example 2-78] | 230 °C (dec.) | 

SMILES | melting point | other results
Cc1cc(C(=O)NC2=Nc3ccccc3C3=NCCN23)cc(C)c1[N+](=O)[O-].Cl [Example 2-223] | 313 °C (dec.) | 
COc1cc2c(cc1OC)C1=NCCN1C(NC(=O)c1ccccc1)=N2 [Example 2-342] |  | IC50 [1, 3]: 500 to 2000 nM
Cc1cc(C(=O)NC2=Nc3ccccc3C3=NCCN23)cnc1N.Cl [Example 2-160] | 311 °C (dec.) | 
Cl.O=C(NC1=Nc2ccc(Br)cc2C2=NCCN12)c1cccnc1 [Example 2-88] | 316 °C | 
COc1c(C)ccc2c1N=C(/C=C(\O)c1ccc3[nH]cnc3c1)N1CCN=C21.Cl [Example 1-35] | 270 °C | 
Cl.O/C(=C\C1=Nc2cc(N3CCOCC3)ccc2C2=NCCN12)c1cncc(O)c1 [Example 1-99] | 312 °C (dec.) | 
Cl.O/C(=C\C1=Nc2ccccc2C2=NCCN12)c1ccccn1 [Example 1-174] | 235 to 240 °C | 
Cl.O/C(=C\C1=Nc2c(OCC3CC3)cccc2C2=NCCN12)c1cccnc1 [Example 1-89] | > 300 °C | 
Cc1ccncc1C(=O)NC1=Nc2ccccc2C2=NCCN12.Cl [Example 2-137] | 291 °C (dec.) | 
COc1ccc2c(c1)N=C(NC(=O)c1ccc3[nH]cnc3c1)N1CCN=C21.Cl [Example 2-26] | 233 °C | 
COc1cccc2c1N=C(NC(=O)c1cccnc1Cl)N1CCN=C21.Cl [Example 2-119] | 266 °C (dec.) | 
Cl.O=C(NC1=Nc2ccccc2C2=NCCN12)c1ccsc1 [Example 2-184] | 297 °C (dec.) | 
O/C(=C\C1=Nc2cc(N3CCN(Cc4ccccc4)CC3)ccc2C2=NCCN12)c1cccnc1 [Example 1-103] | 257 °C | 
Cc1cccc2c1N=C(NC(=O)c1ccc3[nH]cnc3c1)N1CCN=C21.Cl [Example 2-110] | > 290 °C | 
COc1cc2c(cc1OC)C1=NCCN1C(NC(=O)c1cccnc1)=N2 [Example 2-53] |  | IC50 [1, 4]: 100 to 500 nM
Cc1ccc(/C(O)=C/C2=Nc3ccccc3C3=NCCN23)cn1.Cl [Example 1-137] | > 300 °C | 
CN(C)c1cccc(C(=O)NC2=Nc3ccccc3C3=NCCN23)c1.Cl [Example 2-259] | 266 °C (dec.) | 
COc1ccc2c(c1OC)N=C(NC(=O)c1ccc3[nH]cnc3c1)N1CCN=C21.Cl [Example 2-50] | 278 °C (dec.) | 
Cl.O=C(NC1=Nc2ccccc2C2=NCCN12)c1csc(-c2ccncc2)n1 [Example 2-322] | 335 °C (dec.) | 
Cc1nc2ncccc2cc1C(=O)NC1=Nc2ccccc2C2=NCCN12.Cl [Example 2-175] | 270 °C (dec.) | 
Cl.O=C(NC1=Nc2cc(OCCO)ccc2C2=NCCN12)c1cccnc1 [Example 2-198] | 249 °C (dec.) | 
Cl.O=C(NC1=Nc2ccccc2C2=NCCN12)c1csc(-c2cccnc2)n1 [Example 2-320] | 310 °C (dec.) | 
CCn1nc(C)cc1C(=O)NC1=Nc2ccccc2C2=NCCN12.Cl [Example 2-192] | 271 to 272 °C | 
CCOC(=O)c1cc(C(=O)NC2=Nc3ccccc3C3=NCCN23)cc(C(=O)OCC)c1.Cl [Example 2-275] | 282 °C | 
Cl.O=C(NC1=Nc2ccccc2C2=NCCN12)c1cncc(O)c1 [Example 2-139] | 296 to 297 °C | 
Cl.O=C(NC1=Nc2ccccc2C2=NCCN12)c1cnc2[nH]cnc2c1 [Example 2-173] | 287 °C (dec.) | 
